Data: article PMC8597757, “Pharmacokinetic and Safety Profile of the Novel HIV Nonnucleoside Reverse Transcriptase Inhibitor MK-8507 in Adults without HIV” (Antimicrobial Agents and Chemotherapy, 2021)

Tested on: CYP3A4
Experiment: Midazolam drug-drug interaction assessment
Conditions: 2 mg midazolam with third once-weekly 400-mg dose of MK-8507 vs midazolam alone
Protocol: Study 2 (protocol MK-8507-002) was a randomized, serial, 3-panel (A to C), single- and multiple-QW rising-dose trial. Single doses of 400, 800, and 1,200 mg MK-8507 or placebo tablet formulation were administered on day 1 to panels A, B, and C, respectively, to continue dose escalation beyond the dose range in study 1. Following a washout period of 3 weeks, the multiple-dose portion of the trial began. Participants in panels A, B, and C received QW doses of 100, 200, or 400 mg MK-8507 or placebo for 3 weeks (i.e., on days 22, 29, and 36), respectively. […] The PK profile of midazolam following a single oral dose alone or after multiple oral dose administration of MK-8507 was also evaluated. […]
Plasma samples collected for midazolam assay were analyzed by Syneos Health (Québec, Canada). […] The lower limit of quantitation was 20.00 pg/mL, and the analytical range was 20.00 to 20,000.00 pg/mL.
PK parameter values were calculated by noncompartmental analyses using the software Phoenix WinNonlin Professional (version 6.3) (Certara, Princeton, NJ, USA). […] AUC0–∞ and AUC0–168hr were calculated using the linear-trapezoidal method for ascending concentrations and the log-trapezoidal method for descending concentrations (linear up/log down). […]

## Cc1ncc2n1-c1ccc(Cl)cc1C(c1ccccc1F)=NC2 [Midazolam, midazolam]
  decrease in midazolam AUC when coadministered with MK-8507: 12%
  decrease in midazolam Cmax when coadministered with MK-8507: 19%
